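The compound was tested at five concentrations on cells cultured in 96-well plates, with a 48-hour exposure period. Abbreviation: GI50, concentration required for 50% inhibition of growth.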 Active and inactive are the calls of the source. Cut-off read from the data, not from the text of the source: active = GI50 up to about 1.1 µM and inactive = higher.
Experiments:
Assay in all cases: inhibition of tumour cell growth, NCI panel, 48 h
A498 = tested on: A498
A549 = tested on: A549
BT-549 = tested on: BT-549
CCRF-CEM = tested on: CCRF-CEM
HCT-116 = tested on: HCT-116
HOP-62 = tested on: HOP-62
IGROV-1 = tested on: IGROV-1
M14 = tested on: M14
MDA-MB-435 = tested on: MDA-MB-435
MDA-N = tested on: MDA-N
NCI-H23 = tested on: NCI-H23
NCI-H522 = tested on: NCI-H522
OVCAR-5 = tested on: OVCAR-5
SK-MEL-28 = tested on: SK-MEL-28
SK-MEL-5 = tested on: SK-MEL-5
SK-OV-3 = tested on: SK-OV-3
SNB-19 = tested on: SNB-19
T47D = tested on: T47D
NCI-H460 = tested on: NCI-H460

Compound	GI50 (A498)	GI50 (A549)	GI50 (BT-549)	GI50 (CCRF-CEM)	GI50 (HCT-116)	GI50 (HOP-62)	GI50 (IGROV-1)	GI50 (M14)	GI50 (MDA-MB-435)	GI50 (MDA-N)	GI50 (NCI-H23)	GI50 (NCI-H522)	GI50 (OVCAR-5)	GI50 (SK-MEL-28)	GI50 (SK-MEL-5)	GI50 (SK-OV-3)	GI50 (SNB-19)	GI50 (T47D)	GI50 (NCI-H460)
CC(=O)Nc1ccc(-c2nc3ccccc3s2)cc1Cl	5.68 µM (inactive)	99.8 µM (inactive)	> 75.9 µM (inactive)	> 100 µM (inactive)	58.7 µM (inactive)	22.7 µM (inactive)	< 0.0217 µM (active)	68.7 µM (inactive)	> 100 µM (inactive)	> 100 µM (inactive)	51.4 µM (inactive)	54.5 µM (inactive)	0.171 µM (active)	> 100 µM (inactive)	> 100 µM (inactive)	40.6 µM (inactive)	67.5 µM (inactive)	0.395 µM (active)	
Nc1ccc(-c2ccc(Nc3cc(S(=O)(=O)O)c(N)c4c3C(=O)c3ccccc3C4=O)cc2)c(S(=O)(=O)O)c1	> 100 µM (inactive)	> 100 µM (inactive)	> 100 µM (inactive)	> 100 µM (inactive)	> 100 µM (inactive)	> 100 µM (inactive)	> 100 µM (inactive)	> 100 µM (inactive)	> 100 µM (inactive)	> 100 µM (inactive)	> 100 µM (inactive)	> 100 µM (inactive)	> 100 µM (inactive)	> 100 µM (inactive)	> 100 µM (inactive)	> 100 µM (inactive)	> 100 µM (inactive)	> 100 µM (inactive)	> 100 µM (inactive)
c1cncc(CNCc2cccnc2)c1	> 100 µM (inactive)	> 100 µM (inactive)	> 100 µM (inactive)	49.2 µM (inactive)	> 100 µM (inactive)	> 100 µM (inactive)	> 100 µM (inactive)	> 100 µM (inactive)	> 100 µM (inactive)	> 100 µM (inactive)	> 100 µM (inactive)	> 100 µM (inactive)	> 100 µM (inactive)	> 100 µM (inactive)	> 100 µM (inactive)	> 100 µM (inactive)	> 100 µM (inactive)	> 100 µM (inactive)	> 100 µM (inactive)
N#CC(C#N)=CNC(=S)c1ccncc1	92.9 µM (inactive)	> 100 µM (inactive)	11.2 µM (inactive)	34.5 µM (inactive)	53.6 µM (inactive)	> 100 µM (inactive)	69.5 µM (inactive)	> 100 µM (inactive)	> 100 µM (inactive)	> 100 µM (inactive)	> 100 µM (inactive)	21.9 µM (inactive)	> 100 µM (inactive)	> 100 µM (inactive)	48.4 µM (inactive)	> 100 µM (inactive)	41.6 µM (inactive)	> 100 µM (inactive)	> 100 µM (inactive)
CCCCCCCC(=O)OC[n+]1ccc(-c2c(COC(=O)NC(C)C)c(COC(=O)NC(C)C)c3n2CCC3)cc1	29.9 µM (inactive)	63.8 µM (inactive)	> 52.7 µM (inactive)	13.5 µM (inactive)	25.5 µM (inactive)	56.6 µM (inactive)	31 µM (inactive)	49.8 µM (inactive)	69 µM (inactive)	> 94.8 µM (inactive)	35.2 µM (inactive)	26.4 µM (inactive)	> 96.6 µM (inactive)	> 100 µM (inactive)	34.8 µM (inactive)	63.1 µM (inactive)	88.9 µM (inactive)	> 64.9 µM (inactive)	21.4 µM (inactive)
Cc1cccc2c(N)c3cccc(C(=O)NCCNCCN)c3nc12	23.7 µM (inactive)	0.203 µM (active)	14.6 µM (inactive)	0.448 µM (active)	2.52 µM (inactive)	0.533 µM (active)	5.01 µM (inactive)	28.7 µM (inactive)	18.7 µM (inactive)	16 µM (inactive)	0.598 µM (active)	0.0826 µM (active)	22.8 µM (inactive)	15.8 µM (inactive)	5.11 µM (inactive)	26.9 µM (inactive)	1.16 µM (inactive)	7.36 µM (inactive)	0.558 µM (active)
COc1ccc(NC(=O)CC(=O)N2N=C(N3CCCCC3)CC2c2ccccc2)cc1 (stereo unspecified)	> 100 µM (inactive)	> 100 µM (inactive)	> 100 µM (inactive)	> 100 µM (inactive)	> 100 µM (inactive)	> 100 µM (inactive)	> 100 µM (inactive)	> 100 µM (inactive)	> 100 µM (inactive)	> 100 µM (inactive)	> 100 µM (inactive)	> 100 µM (inactive)	> 100 µM (inactive)	> 100 µM (inactive)	> 100 µM (inactive)		> 100 µM (inactive)	> 100 µM (inactive)	> 100 µM (inactive)

Source: ChEMBL document CHEMBL1201862, “PubChem BioAssay data set” (2004)
